From US7871999B2, “Substituted thiazoles and their use for producing drugs” (Gruenenthal GmbH, priority 2005, dated 2011) come the findings set out here.

The subject of assay [1] is rats. Kind of assay: Formaldehyde test in rats (phase 2, chronic pain component). The assay is classed as in vivo. To be noted: rat. The method, then: III. Formaldehyde Test in Rats: The formaldehyde test (Dubuisson, D. and Dennis, S. G., 1977, Pain, 4, 161-174) is a model of both acute and chronic pain. A biphasic nociceptive response is induced in freely mobile test animals by a single formaldehyde injection into the dorsal side of a hind paw, said response being detected by the observation of three clearly distinguishable behaviour patterns. The response is in two phases: phase 1=immediate response (duration up to 10 min; paw shaking, licking), phase 2=late response (after a resting phase; likewise paw shaking, licking; duration up to 60 min). The 1st phase reflects direct stimulation of the peripheral nocisensors with an elevated spinal nociceptive input or glutamate release (acute pain phase); the 2nd phase reflects spinal and peripheral hypersensitisation (chronic pain phase). In the investigations presented here, it was the chronic pain component (phase 2) which was evaluated. […] The specific behavioural changes, such as raising and shaking the paw, changes in weight bearing of the animal and biting and licking responses are observed and recorded over the observation period of 21 to 27 min after the formaldehyde injection. The various behaviours are summarised as a “pain rate” (PR), which is the calculated nociceptive response averaged over 3 min sub-intervals. […]

Assay [2] has as its target T1, mGluR5 receptor (Sus scrofa, UniProt I3LUI7).
T1 construct: pig brain hemispheres without medulla, cerebellum and pons ... differential centrifugation at 900×g and 40,000×g
The experiment in a line: Inhibition of [^3H]-MPEP binding in the mGluR5 receptor binding assay (pig brain homogenate). To be noted: 5 nM [^3H]-MPEP. The method, then:
I. Method for Determining the Inhibition of [^3H]-MPEP Binding in the mGluR5 Receptor Binding Assay […]
The batches are then filtered with the assistance of a Brandel Cell Harvester (Brandel, Robotic 9600 model) on Unifilter plates with glass filter mats (Perkin Elmer, order number 6005177) and then washed 3 times with buffer (as above) using 250 μl per sample. The filter plates are then dried for 60 min at 55° C. Then 30 μl of Ultima Gold™ scintillating material (Packard BioScience, order number 6013159) is added per well and after 3 hours the samples are measured using the β counter (Microbeta, Perkin Elmer). Nonspecific binding is determined by the addition of 10 μM MPEP (Tocris, order number 1212).

Assay [3] concerns the target T2, mGluR5 receptor (Homo sapiens, UniProt P41594).
T2 construct: host or cells: CHO cells (CHO-hmGluR5), incubated overnight with doxycycline
The experiment in a line: Functional Ca^2+ influx assay in the mGluR5 receptor assay (CHO-hmGluR5 cells, DHPG 10 μM). The note with it: Ki=IC50/(1+(AGconc./EC50)). The class given is cell-based. The source says:
II. Method for Determining Ca^2+ Influx in the mGluR5 Receptor Assay
[…] According to this assay, intracellular Ca^2+ release is quantified after activation of the mGluR5 receptor with the assistance of a Ca^2+-sensitive dye (type Fluo-4, Molecular Probes Europe BV, Leiden, Netherlands) in a FlexStation (Molecular Devices, Sunnyvale, USA).
Description of the Functional Ca^2+ Influx Assay
20,000 CHO-hmGluR5 cells/well (Euroscreen, Gosselies, Belgium) are pipetted out into 96 well plates (BD Biosciences, Heidelberg, Germany, Ref. 356640, clear bottom, 96 well, poly-D-lysine) and incubated overnight in HBSS buffer (Gibco No. 14025-050) with the following additives: 10% FCS (GIBCO, 10270-106) and doxycycline (BD Biosciences Clontech 631311 600 ng/ml).
For the purpose of functional investigation, the cells were loaded with 2 μM Fluo-4 and 0.01 vol. % Pluronic F127 (Molecular Probes Europe BV, Leiden, Netherlands) in HBSS buffer (Hank's buffered saline solution, Gibco Invitrogen GmbH, Karlsruhe, Germany) with Probenicid (Sigma P8761, 0.69 mg/ml) for 30 min at 37° C.
The cells are then washed 3 times with washing buffer (HBSS buffer, Gibco No. 14025-050, with Probenicid (Sigma P8761, 0.69 mg/ml) and then resuspended with the same buffer to make up to 100 μl. After 15 min, the plates are transferred for determination of Ca^2+ measurements in the presence of DHPG ((S)-3,5-dihydroxyphenylglycine, Tocris Biotrend Chemikalien GmbH, Cologne, Germany, final DHPG concentration: 10 μM) and in the presence or absence of test substances into a FLuorometric Imaging Plate Reader (FLIPR, Molecular Devices, Sunnyvale, Calif.).
Ca^2+-dependent fluorescence is measured before and after addition of test substances. Quantification proceeds by measuring the highest fluorescence intensity over time.
After recording a fluorescence baseline for 10 s, 50 μl of test substance solution (various test substance concentrations in HBSS buffer with 1% DMSO and 0.02% Tween 20, Sigma) are added and the fluorescence signal is measured for 6 min. Then, 50 μl of DHPG solution ((S)-3,5-dihydroxyphenylglycine, Tocris Biotrend Chemikalien GmbH, Cologne, Germany, final DHPG concentration: 10 μM) are added and Ca^2+ influx is simultaneously measured for 60 s. The final DMSO concentration amounts to 0.25% and the final Tween 20 content amounts to 0.005%. The data are analysed with Microsoft Excel and GraphPad Prism. The dose-response curves are calculated with non-linear regression and IC50 values are determined. Each data point is determined in triplicate and IC50 values are averaged from a minimum of 2 independent measurements.
Ki values are calculated using the following formula: Ki=IC50/(1+(AGconc./EC50)).
AGconc.=10 μM; EC50 corresponds to the DHPG concentration which is necessary for the semimaximal influx of Ca^2+.

The term ED50 denotes the midpoint of the dose-response relation. Low values mean an effect at a small dose, high ones a need for a large dose. The IC50 is the concentration at which inhibition is half-maximal. A lower IC50 goes with greater potency in that assay. A word on the Ki: it is the equilibrium dissociation constant of an inhibitor or competing ligand from its target. A lower Ki goes with a stronger hold on the target.

T2 sequence (P41594 21-1212): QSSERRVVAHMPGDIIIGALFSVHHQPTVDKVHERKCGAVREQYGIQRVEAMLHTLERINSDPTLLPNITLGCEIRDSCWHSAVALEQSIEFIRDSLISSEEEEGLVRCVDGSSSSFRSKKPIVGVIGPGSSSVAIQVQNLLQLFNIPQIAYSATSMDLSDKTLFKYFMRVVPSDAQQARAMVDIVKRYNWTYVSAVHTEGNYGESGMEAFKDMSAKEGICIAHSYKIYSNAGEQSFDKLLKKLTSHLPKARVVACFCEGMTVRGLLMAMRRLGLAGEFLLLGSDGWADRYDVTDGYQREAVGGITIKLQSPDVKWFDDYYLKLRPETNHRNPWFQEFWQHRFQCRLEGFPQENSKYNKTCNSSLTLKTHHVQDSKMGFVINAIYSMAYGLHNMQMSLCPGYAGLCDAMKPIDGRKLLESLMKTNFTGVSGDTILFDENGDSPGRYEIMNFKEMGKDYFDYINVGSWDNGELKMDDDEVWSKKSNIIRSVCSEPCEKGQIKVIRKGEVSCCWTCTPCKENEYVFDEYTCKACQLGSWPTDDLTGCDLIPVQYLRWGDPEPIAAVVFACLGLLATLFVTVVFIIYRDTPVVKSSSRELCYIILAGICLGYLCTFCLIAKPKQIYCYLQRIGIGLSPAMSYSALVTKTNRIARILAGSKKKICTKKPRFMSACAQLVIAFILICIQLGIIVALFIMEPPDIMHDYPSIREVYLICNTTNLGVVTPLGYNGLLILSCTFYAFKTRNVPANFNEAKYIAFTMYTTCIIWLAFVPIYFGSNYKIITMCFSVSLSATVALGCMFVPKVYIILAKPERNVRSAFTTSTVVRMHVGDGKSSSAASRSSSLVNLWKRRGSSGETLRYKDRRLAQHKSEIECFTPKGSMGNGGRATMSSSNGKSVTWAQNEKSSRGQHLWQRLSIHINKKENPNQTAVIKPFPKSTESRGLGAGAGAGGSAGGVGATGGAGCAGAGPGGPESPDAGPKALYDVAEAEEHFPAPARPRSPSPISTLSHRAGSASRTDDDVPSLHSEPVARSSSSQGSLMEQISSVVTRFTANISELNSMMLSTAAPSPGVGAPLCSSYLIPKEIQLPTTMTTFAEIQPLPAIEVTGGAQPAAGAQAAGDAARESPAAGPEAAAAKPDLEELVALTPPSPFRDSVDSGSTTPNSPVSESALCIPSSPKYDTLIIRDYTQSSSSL
T1 sequence (I3LUI7 1-1212): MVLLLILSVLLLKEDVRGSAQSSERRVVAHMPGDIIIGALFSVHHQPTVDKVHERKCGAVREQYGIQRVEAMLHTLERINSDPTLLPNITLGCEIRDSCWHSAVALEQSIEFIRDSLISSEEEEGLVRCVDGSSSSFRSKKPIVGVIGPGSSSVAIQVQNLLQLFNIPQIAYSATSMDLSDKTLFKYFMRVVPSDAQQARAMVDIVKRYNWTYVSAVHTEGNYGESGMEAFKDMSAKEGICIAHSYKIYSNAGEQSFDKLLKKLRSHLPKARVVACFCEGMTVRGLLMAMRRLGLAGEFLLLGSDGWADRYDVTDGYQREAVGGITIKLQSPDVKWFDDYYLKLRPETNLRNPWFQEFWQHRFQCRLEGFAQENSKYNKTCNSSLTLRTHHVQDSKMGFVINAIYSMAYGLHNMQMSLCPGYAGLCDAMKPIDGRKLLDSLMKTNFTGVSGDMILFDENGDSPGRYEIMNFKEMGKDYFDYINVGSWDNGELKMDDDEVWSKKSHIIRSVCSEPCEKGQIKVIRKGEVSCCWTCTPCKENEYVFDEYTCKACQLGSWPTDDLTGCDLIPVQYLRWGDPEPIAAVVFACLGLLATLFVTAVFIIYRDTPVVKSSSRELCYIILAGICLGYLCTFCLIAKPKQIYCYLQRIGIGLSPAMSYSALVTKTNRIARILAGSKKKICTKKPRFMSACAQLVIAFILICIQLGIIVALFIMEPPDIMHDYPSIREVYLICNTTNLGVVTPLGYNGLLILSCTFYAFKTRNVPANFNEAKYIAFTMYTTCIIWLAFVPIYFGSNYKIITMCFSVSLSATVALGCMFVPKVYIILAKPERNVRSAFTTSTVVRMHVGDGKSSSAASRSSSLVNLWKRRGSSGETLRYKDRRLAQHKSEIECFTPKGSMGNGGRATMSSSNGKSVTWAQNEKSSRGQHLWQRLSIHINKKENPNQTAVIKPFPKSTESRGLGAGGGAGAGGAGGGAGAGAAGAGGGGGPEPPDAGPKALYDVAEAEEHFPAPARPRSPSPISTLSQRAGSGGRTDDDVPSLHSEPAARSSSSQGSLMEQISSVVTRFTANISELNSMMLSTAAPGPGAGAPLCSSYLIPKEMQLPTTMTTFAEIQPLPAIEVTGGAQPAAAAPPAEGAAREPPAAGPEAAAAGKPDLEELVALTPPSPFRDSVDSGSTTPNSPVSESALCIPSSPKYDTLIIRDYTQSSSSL

`CN(CCNC(=O)C#Cc1cccc(Cl)c1)c1nccs1.Cl` [Example 23, N-(2-(Methyl(thiazol-2-yl)amino)ethyl)-3-(3-chlorophenyl)-propiolamide hydrochloride] displayed an ED50 in assay [1] (iv, i.v. administration) of 1 mg/kg. The “inhibition in the formaldehyde test” value in assay [1] (oral administration of 10 mg/kg) was 38%. Besides, the IC50 in assay [2] is 5.6 nM.
Turning to `CN(CCNC(=O)C#Cc1ccccc1)c1nccs1` [Example 9, N-(2-(methyl(thiazol-2-yl)amino)ethyl)-3-phenylpropiolamide], the Ki in assay [3] came to 1 nM. In assay [2], this molecule showed an IC50 of 38 nM.
Consider `CN(CCN(C)c1nccs1)C(=O)C#Cc1cccc(Cl)c1` [Example 18, N-Methyl-N-(2-(methyl(thiazol-2-yl)amino)ethyl)-3-(3-chlorophenyl)-propiolamide], for which the affinity in assay [3], expressed as Ki, was 4.9 nM. Besides, in assay [2], the IC50 stood at 20 nM.
The matching figures for `Cc1cccc(C#CC(=O)N(C)CCN(C)c2nccs2)c1` [Example 7, N-methyl-N-(2-(methyl(thiazol-2-yl)amino)ethyl)-3-(3-methylphenyl)-propiolamide]: 4.8 nM and 26 nM.
